Data as given in patent EP1066315B1 (University of Dundee, priority 1998, dated 2008).
Residues, ends and D or L forms follow the SMILES beside them. *: point of attachment. Fmoc = O=C(OCC1c2ccccc2-c2ccccc21)*

Tests used:
Cathepsin S = experiment: Hydrolysis of cathepsin S substrate by B cell lysosomal fractions; assay type: biochemical, human; settings: Fig 3b
Description: The invention will now be described by reference to the following Examples and Figures wherein • Figure 1: Processing of TTCF by a leupeptin-insensitive cysteine endopeptidase activity. (a) TTCF was digested in vitro in the presence of disrupted lysosomes (1-2 µg) in the presence or absence of iodoacetamide (1 mM), leupeptin, E64 or pepstatin (each at 0.1 mg/ml). Digestions were in 0.1 M NH4 acetate at pH 4.5 or Na2HPO4, pH 6.0 or 7.0. After 4 hours at 37°C, the reactions were separated by Tris-tricine SDS-PAGE and stained with Coomassie Blue. (b) Cleavage sites: TTCF digestion products were separated by SDS PAGE and electrophoretically transferred to nitrocellulose membrane. Individual fragments numbered 1-6 were subjected to 5 cycles of Edman degradation. N-terminal sequence obtained is shown in bold following upstream residues from TTCF (tetanus toxin numbering). […] (c) Each fraction was analysed by SDS-PAGE and Western blotting. […] Release of 7-amino-4-methyl coumarin was measured after 10, 20 or 30 minutes. […] At different times the cells were washed, fixed in 0.05 % glutaraldehyde and antigen presentation measured using proliferation of different autologous TTCF-specific T cell clones. c, AEP pre-processing of TTCF speeds antigen presentation. […] Presentation was measured after 60 minutes of antigen pulsing using EBV B cells. […]

Human B-cell AEP = experiment: Digestion of TTCF by human B-cell AEP in the presence of tetrapeptides; assay type: biochemical; settings: Fig 3d

Q: For `C[C@H](NC(=O)OCC1c2ccccc2-c2ccccc21)C(=O)N[C@@H](CCC(=O)O)C(=O)N[C@@H](CC(N)=O)C(=O)N[C@@H](CCCCN)C(N)=O` [AENK, Ala-Glu-Asn-Lys-NH] (Fmoc-AENK-NH2), which “hydrolysis of the Cathepsin S substrate Z-Val-Val-Arg-HNMec” value (Cathepsin S) is on record?
A: had no effect

Q: And the “inhibition of TTCF digestion by human B-cell AEP” value (Human B-cell AEP)?
A: inhibited
